According to the supplement of paper PMC10627819:

Experiments:
[1] = system: S. pneumoniae D39V; test: fitness (endpoint OD595 vs no drug) (fraction); higher = more growth
Summary of the method: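 Bacterial fitness was scored as optical density at the stationary-phase transition relative to the robust mean of no-drug control wells. Scores are capped at 1. The growth data were OD595 readings every 30 min for 14 h at 37 °C, background-subtracted against the first reading, from 384-well plates inoculated at OD595 0.01 in TSB, LB Lennox or CY.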

[2] = system: S. aureus Newman; test: Bliss interaction score (quartile over a dose matrix) (fitness difference); higher = more antagonism (negative = synergy)
Summary of the method: (§1)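 Fitness was OD595 at entry into stationary phase divided by the plate's robust no-drug mean and capped at 1; single-drug fitness was inferred from combination data. The Bliss score is observed minus expected (product) fitness, summarised by quartiles over technical, biological and donor/recipient replicates.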

[3] = system: S. aureus DSM 20231; test: as above
Summary of the method: as §1

[4] = system: S. pneumoniae D39V; test: as above
Summary of the method: as §1

[5] = system: B. subtilis 168; test: as above
Summary of the method: as §1
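For Bliss interaction score (quartile over a dose matrix) in this document: first quartile when negative (synergy) and third quartile when positive (antagonism).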

CC[C@H]1OC(=O)[C@H](C)[C@@H](O[C@H]2C[C@@](C)(OC)[C@@H](O)[C@H](C)O2)[C@H](C)[C@@H](O[C@@H]2O[C@H](C)C[C@H](N(C)C)[C@H]2O)[C@](C)(OC)C[C@@H](C)C(=O)[C@H](C)[C@@H](O)[C@]1(C)O [Clarithromycin] + COc1c(N2C[C@@H]3CCCN[C@@H]3C2)c(F)cc2c(=O)c(C(=O)O)cn(C3CC3)c12 [Moxifloxacin]
fitness, [1], one replicate
Settings | first compound 0.007812 µg/mL | first compound 0.01562 µg/mL | first compound 0.03125 µg/mL
partner 0.0037 µg/mL | 0.834 | 0.823 | 0.648
partner 0.0075 µg/mL | 0.85 | 0.82 | 0.6
partner 0.015 µg/mL | 0.818 | 0.765 | 0.572

fitness, [1]
Settings | partner 0.005 µg/mL | partner 0.01 µg/mL | partner 0.02 µg/mL | partner 0.0312 µg/mL | partner 0.0625 µg/mL | partner 0.125 µg/mL
first compound 0.0625 µg/mL | 0.716 | 0.748 | 0.717 | – | – | –
first compound 0.07 µg/mL | – | – | – | 0.056 | 0.0339 | 0.0389
first compound 0.14 µg/mL | – | – | – | 0.0451 | 0.0439 | 0.0343
first compound 0.25 µg/mL | 0.217 | 0.235 | 0.238 | – | – | –
first compound 0.28 µg/mL | – | – | – | 0.0421 | 0.0312 | 0.0325

Settings | Bliss interaction score
[2] | 0.123
[3] | 0.0891
[4] | 0.0742
[5] | 0.0403

CC[C@H]1OC(=O)[C@H](C)[C@@H](O[C@H]2C[C@@](C)(OC)[C@@H](O)[C@H](C)O2)[C@H](C)[C@@H](O[C@@H]2O[C@H](C)C[C@H](N(C)C)[C@H]2O)[C@](C)(OC)C[C@@H](C)C(=O)[C@H](C)[C@@H](O)[C@]1(C)O [Clarithromycin] + CC1=C\[C@@H](O)CC(=O)Cc2nc(co2)C(=O)N2CCC=C2C(=O)O[C@H](C(C)C)[C@H](C)/C=C/C(=O)NC\C=C\1 [Virginiamycin M1]
fitness, [1], one replicate
Settings | first compound 0.007812 µg/mL | first compound 0.01562 µg/mL | first compound 0.03125 µg/mL | first compound 0.0625 µg/mL | first compound 0.125 µg/mL | first compound 0.25 µg/mL
partner 0.15 µg/mL | – | – | – | 0.788 | 0.645 | 0.463
partner 0.3 µg/mL | – | – | – | 0.734 | 0.635 | 0.425
partner 0.5 µg/mL | 0.856 | 0.884 | 0.758 | 0.756 | 0.529 | 0.361
partner 1 µg/mL | 0.852 | 0.85 | 0.719 | 0.608 | 0.328 | 0.132
partner 2 µg/mL | 0.853 | 0.808 | 0.682 | – | – | –

fitness, [1]
Settings | first compound 0.0625 µg/mL | first compound 0.07 µg/mL | first compound 0.125 µg/mL | first compound 0.14 µg/mL | first compound 0.25 µg/mL | first compound 0.28 µg/mL
partner 0.5 µg/mL | – | 0.119 | – | 0.0772 | – | 0.0473
partner 1 µg/mL | – | 0.118 | – | 0.0875 | – | 0.0656
partner 2 µg/mL | 0.647 | 0.124 | 0.463 | 0.105 | 0.288 | 0.0464

Settings | Bliss interaction score
[2] | 0.0322
[3] | 0.0856
[4] | 0.0597
[5] | 0.0359
